# Experimental data as given in patent US20230381182A1, “Biomarkers Related to Immune Checkpoint Inhibitor Therapy and Methods of Using the Same” (Senda Biosciences, Inc., priority 2020, published 2023).
# Columns and labels:
# AhR = target: T1, AhR (Homo sapiens, UniProt P35869); assay: DRE-Luciferase reporter assay (HepG2-Luc); assay type: cell-based; conditions: Human HepG2 liver carcinoma AhR-Lucia reporter cells; inhibition of luciferase activity induced by AhR activating ligand at its EC50
# T1 construct: endogenous in cells; host or cells: Human HepG2 liver carcinoma AhR-Lucia reporter cells (DRE-luciferase reporter stably transfected)
# T1 sequence (P35869 11-848): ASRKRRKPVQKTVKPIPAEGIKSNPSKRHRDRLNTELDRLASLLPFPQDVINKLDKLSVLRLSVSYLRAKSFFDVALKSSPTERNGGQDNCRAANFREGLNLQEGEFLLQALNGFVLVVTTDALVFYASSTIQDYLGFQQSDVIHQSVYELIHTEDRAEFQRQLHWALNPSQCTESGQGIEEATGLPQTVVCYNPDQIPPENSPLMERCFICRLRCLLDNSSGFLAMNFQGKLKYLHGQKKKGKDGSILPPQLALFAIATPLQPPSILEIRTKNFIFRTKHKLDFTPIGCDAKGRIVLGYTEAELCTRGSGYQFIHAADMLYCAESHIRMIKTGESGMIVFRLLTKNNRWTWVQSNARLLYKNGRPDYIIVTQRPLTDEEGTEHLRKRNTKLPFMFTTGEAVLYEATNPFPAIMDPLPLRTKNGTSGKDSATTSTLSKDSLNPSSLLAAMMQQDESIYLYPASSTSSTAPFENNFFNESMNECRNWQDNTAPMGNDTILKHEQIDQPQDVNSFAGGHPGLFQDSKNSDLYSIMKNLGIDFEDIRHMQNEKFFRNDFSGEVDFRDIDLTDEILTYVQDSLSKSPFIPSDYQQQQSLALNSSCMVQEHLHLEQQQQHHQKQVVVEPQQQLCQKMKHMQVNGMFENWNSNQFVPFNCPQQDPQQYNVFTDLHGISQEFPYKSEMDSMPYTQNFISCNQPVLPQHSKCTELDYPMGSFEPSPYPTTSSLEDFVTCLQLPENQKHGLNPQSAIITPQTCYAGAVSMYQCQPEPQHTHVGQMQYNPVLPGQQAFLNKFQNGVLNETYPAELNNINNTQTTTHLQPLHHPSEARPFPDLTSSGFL
# Description: AhR binds to dioxin responsive elements (DRE) upstream of the genes that it activates. One measure of AhR activity is activation of a reporter gene, such as luciferase, downstream of one or multiple DRE elements. Luciferase activity reflects activation and inhibition of AhR in the cells expressing this reporter. 20000 Human HepG2 liver carcinoma—AhR-Lucia reporter cells or Human HT29 colon adenocarcinoma-AhR reporter cells or other cell lines with a DRE-luciferase reporter stably transfected were plated in Eagle's Minimal Essential Medium, 10% heat-inactivated FBS, 1× non-essential amino acids Pen-Strep (10,000 U/mL) and Normocin (100 ug/mL) in plates (96-well, 384-well or other plates) and incubated overnight at 37° C. in a CO2 incubator and treated with and without AhR antagonists at a log dilution starting at 100 μM. […]
# Cells were incubated for 24 or 48 hours or another time point and the supernatant was analyzed for determination of luciferase activity as a read-out of the AhR activation or inhibition. Luciferase was measured with the commercial kit QUANTI-Luc™ assay solution kit from InvivoGen following the manufacturer's instructions.
# The level of luciferase with only agonist ligand added was the maximum signal while the luciferase with […] was the minimum signal. IC50 values were determined as the concentration which inhibits half of the luciferase activity.
# CT26 cells = assay: Anti-tumor efficacy in CT26 mouse model unresponsive to anti-PD-L1 therapy; assay type: in vivo, Balb/c mice; conditions: Compound No. 30 10 mg/kg p.o. once a day over 14 days coadministered with anti-PD-L1 antibody 10 mg/kg i.p. every 3 days
# Description: The anti-tumor efficacy of Compound No. 30 was studied in a CT26 mouse model which is unresponsive to anti-PD-L1 therapy only. CT26 cells were implanted subcutaneously into Balb/c mice which were then randomized and treated either with an […], an anti-PD-L1 antibody, or Compound No. 30 of Table 2 in combination with the anti-PD-L1 antibody. Compound No. 30 was dosed 10 mg/kg, p.o. once a day over 14 days and the anti-PD-L1 antibody was dosed at 10 mg/kg i.p. every 3 days.
Structure (SMILES),IC50 (AhR) [nM],"tumor volume (tumor growth curves) (CT26 cells; p=0.039, Mann-Whitney, FIG. 4A)","tumor weight (CT26 cells; p=0.067, Mann-Whitney, FIG. 4B)"
"O=c1c2cc(-c3ccc(OC(F)(F)F)cc3)nc(-c3cccnc3)c2ncn1C[C@@H](O)C(F)(F)F [compound 123, (R)-8-(pyridin-3-yl)-3-(3,3,3-trifluoro-2-hydroxypropyl)-6-(4-(trifluoromethoxy)phenyl)pyrido[3,4-d]pyrimidin-4(3H)-one]",< 100,,
"C[C@H](n1cnc2c(-c3cnn(C)c3)nc(-c3ccc(Cl)cc3)cc2c1=O)C(C)(C)O [Compound No. 30, (S)-6-(4-chlorophenyl)-3-(3-hydroxy-3-methylbutan-2-yl)-8-(1-methyl-1H-pyrazol-4-yl)pyrido[3,4-d]pyrimidin-4(3H)-one]",,reduction in tumor volume,reduction in tumor weight
